Measured values taken from PubChem BioAssay (NCI).
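1) Cells in 96-well plates. 2) Compound, 48 h, 5 concentrations. 3) Linear interpolation between surrounding doses. 4) Unreached endpoint = highest concentration. GI50 marks 50% less growth. TGI marks complete inhibition of growth.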

Tests used:
Assay in all cases: NCI tumour cell line growth inhibition, 48 h
[1] = test system: A498 renal
[2] = test system: HL-60(TB) leukemia
[3] = test system: HOP-92 NSCLC
[4] = test system: K-562 leukemia
[5] = test system: NCI/ADR-RES ovarian
[6] = test system: SF-268 CNS
[7] = test system: SK-MEL-5 melanoma
[8] = test system: SN12C renal
[9] = test system: UACC-62 melanoma
[10] = test system: OVCAR-4 ovarian

Structure (SMILES)	GI50 [1] [µM]	TGI [1] [µM]	GI50 [2] [µM]	TGI [2] [µM]	GI50 [3] [µM]	TGI [3] [µM]	GI50 [4] [µM]	TGI [4] [µM]	GI50 [5] [µM]	TGI [5] [µM]	GI50 [6] [µM]	TGI [6] [µM]	GI50 [7] [µM]	TGI [7] [µM]	GI50 [8] [µM]	TGI [8] [µM]	GI50 [9] [µM]	TGI [9] [µM]	GI50 [10] [µM]	TGI [10] [µM]
COc1ccc(-c2nc3sc4c(c3c(=O)[nH]2)CCCCCC4)cc1	0.897	> 33.2	0.874	> 33.2	1.4	14.5	0.229	> 33.2	2.16	> 33.2	13.9	> 33.2	2.52	> 33.2	> 33.2	> 33.2	0.908	> 33.2		
O=C1c2cccnc2C(=O)c2nc3cc(N4CCN(C5CC5)CC4)ccc3nc21	1.34	2.91	2.37	7.29	2.93	9.95	0.522	> 20.7	1.95	8.14	1.24	4.93	0.252	0.686	0.519	1.88	0.222	0.631	1.27	2.55
Cn1cc(-c2ccc3occ(-c4cccc(-c5ccncc5)c4)c3n2)cn1	0.159	0.832			2.76	> 100	0.284	> 100	0.368	> 100	1.46	> 100	0.406	1.63	1.32	> 100	0.478	> 100	2.7	> 100
CCCCC(CC)CN=C(N)NC(N)=NCCCCCCN=C(N)NC(N)=NCC(CC)CCCC (configuration not stated)			2.07	3.97					10.4	33.6	1.63	3.09			1.52	4.39	1.84	4.12	1.9	4.85
O=C1CC(c2ccc(O)cc2)C2(O1)C(=O)OC(C(O)CO)C2O (configuration not stated)		> 100		> 100				> 100		> 100		> 100		> 100		> 100		> 100		
Cc1ccccc1[P+](Cc1ccccc1)(c1ccccc1)c1ccccc1	1.46	7.2	1.23	4.04			1.08	> 100	> 100	> 100	3.44	> 100	0.863	2.29	2.85	90.3	1.36	11.9	1.91	> 100
COC(=O)[C@@]1(C)CC[C@]2(C)CC[C@]3(C)C4=CC=C5C(=CC(=O)C(O)=C5C)[C@]4(C)[C@@H](O)C[C@@]3(C)[C@@H]2C1			9.68	28.9	11.6	23.2	4.25	20.9	15.3	34.8	9.62	22.2	16.5	32.6	9.65	20.7	8.59	18.9	8.38	19.7
